Assay results reported in US11084824B2, “Pyrazolopyrimidine derivatives, preparation method thereof, and pharmaceutical composition for use in preventing or treating cancer, autoimmune disease and brain disease containing the same as an active ingredient” (Korea Research Institute of Chemical Technology, priority 2017, dated 2021).

Experiments:
[1] = target: Bruton's tyrosine kinase (BTK) (Homo sapiens (Human), UniProt Q06187); assay: BTK enzyme inhibition assay (Cisbio HTRF kit); format: biochemical; details: 30 minutes reaction, fluorescence 665 nm/620 nm
Chain of Bruton's tyrosine kinase (BTK) (Q06187 whole entry): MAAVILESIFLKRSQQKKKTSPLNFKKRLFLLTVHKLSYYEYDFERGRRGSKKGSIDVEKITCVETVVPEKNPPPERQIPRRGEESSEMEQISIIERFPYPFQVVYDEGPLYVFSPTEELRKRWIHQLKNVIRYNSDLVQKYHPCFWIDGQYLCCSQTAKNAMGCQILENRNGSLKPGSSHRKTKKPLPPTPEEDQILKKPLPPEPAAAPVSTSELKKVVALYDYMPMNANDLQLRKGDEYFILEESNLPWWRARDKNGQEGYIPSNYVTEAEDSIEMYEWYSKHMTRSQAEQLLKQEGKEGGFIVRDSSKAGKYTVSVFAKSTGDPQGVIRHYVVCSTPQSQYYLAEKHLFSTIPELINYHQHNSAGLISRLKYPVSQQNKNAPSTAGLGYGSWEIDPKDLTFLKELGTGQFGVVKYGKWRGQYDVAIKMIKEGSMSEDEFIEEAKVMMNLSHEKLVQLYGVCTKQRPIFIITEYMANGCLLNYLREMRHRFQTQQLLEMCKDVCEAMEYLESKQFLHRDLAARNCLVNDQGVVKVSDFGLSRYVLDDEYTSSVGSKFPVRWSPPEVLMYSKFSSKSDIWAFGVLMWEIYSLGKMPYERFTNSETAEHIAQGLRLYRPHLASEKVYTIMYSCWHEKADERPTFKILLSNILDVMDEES
Method: BTK enzyme evaluation with each compound of examples of the invention was performed by using BTK enzyme inhibition diagnosis kit (Cisbio, Codolet, France). […] Then, EDTA (ethylenediaminetetraacetic acid) was added thereto in order to terminate the reaction. At this time, the EDTA solution contained curopium-containing antibody (antiphosphoresidue antibody) and straptavidin-XL665 (SA-XL665, Cisbio). After incubation for 1 hour, fluorescence was measured. The emission values of 665 nm and 620 nm excited at 337 nm were measured with Envision reader. IC50 values were determined using GraphPad prism (version 5). Herein, the curve indicates a nonlinear regression model, which was determined by logarithmic functions and reaction values.

TMD8 cells = assay: TMD8 cell growth inhibition (WST-1, 72 hours); format: cell-based; details: Homo sapiens, TMD8 ABC type DLBCL cell line, WST-1, absorbance 450 nm
Method: TDM-8 cells, the ABC (activated B-cell) type DLBCL (diffuse large B cell lymphoma) cell line sensitive to BTK signaling, were seeded in a 96-well plate at 30% confluency. Then, the compounds of the invention were treated thereto at different concentrations. 72 hours later, WST-1 reagent was added thereto. One hour later, absorbance was measured at 450 nm by using a spectramax spectrophotometer.

[2] = system: human peripheral blood mononuclear cells (human PBMC); assay: TNFa inhibition in human PBMC monocytes (ELISA); format: cell-based; details: TNFa concentration in culture medium by ELISA, HSA/anti-HSA antibody coated plate, overnight culture, read-out: hPBMC IC50
Method: 20 ug/ml of human serum albumin (HAS) solution was prepared and distributed in a 96-well plate (200 μl/well). Reaction was induced at 4° C. for overnight and then 10% FBS solution was treated thereto (200 μl/well), followed by elimination. Lastly, 10 ug/ml of anti-HSA antibody was treated thereto (200 μl/well) for 1 hour, followed by elimination. An appropriate number of monocytes of human peripheral blood mononuclear cells (human PBMC) were distributed in the prepared 96-well plate. The target compounds were treated thereto at different concentration via serial dilution method, followed by culture for overnight. IC50 values of the compounds were determined by confirming the TNFa inhibition activity of the compounds between the maximum concentration (positive control) and the minimum concentration (negative control) of TNFa, and the results are shown in Table 8.

| Structure (SMILES) | IC50 [1] | IC50 (TMD8 cells) | IC50 [2] |
| --- | --- | --- | --- |
| Cn1nc(Nc2c(Cl)cccc2Cl)c2cnc(Nc3ccc4c(c3)CNCC4)nc21 [Example 12, N^3-(2,6-dichlorophenyl)-1-methyl-N^6 (1,2,3,4-tetrahydroisoquinoline-7-yl)-1H-pyrazolo[3,4-d]pyrimidine-3,6-diamine] | 3.75 nM | 89 nM | 2.6 nM |
| Cc1cccc(C)c1Nc1nn(C)c2nc(Nc3ccc4c(c3)CNCC4)ncc12 [Example 2, N^3-(2,6-dimethylphenyl)-1-methyl-N^6-(1,2,3,4-tetrahydroisoquinoline-7-yl)-1H-pyrazolo[3,4-d]pyrimidine-3,6-diamine] | – | 30.1 nM | 7.7 nM |
| CC(=O)N1CCc2cc(Nc3ncc4c(Nc5c(C)cccc5C)nn(C)c4n3)ccc2C1 [Example 8, 1-(6-(3-(2,6-dimethylphenylamino)-1-methyl-1H-pyrazolo[3,4-d]pyrimidine-6-ylamino)-3,4-dihydroisoquinoline-2(1H)-yl)ethaneone] | 1 nM | 93 nM | 4.8 nM |
| Cc1cccc(C)c1Nc1nn(C)c2nc(Nc3ccc4c(c3)C(C)N(C)CC4)ncc12 (stereo not drawn) [Example 62, N6-(1,2-dimethyl-1,2,3,4-tetrahydroisoquinoline-7-yl)-N 3-(2,6-dimethylphenyl)-1-methyl-1H-pyrazolo[3,4-d]pyrimidine-3,6-diamine] | 1.21 nM | 27.9 nM | – |
| Cc1cccc(C)c1Nc1nn(C)c2nc(Nc3ccc4c(c3)C(C(C)C)N(C)CC4)ncc12 (stereo not drawn) [Example 65, N3-(2,6-dimethylphenyl)-N 6-(1-isopropyl-2-methyl-1,2,3,4-tetrahydroisoquinoline-7-yl)-1-methyl-1H-pyrazolo[3,4-d]pyrimidine-3,6-diamine] | 7.74 nM | 274 nM | – |
| Cc1cccc(C)c1Nc1nn(C)c2nc(Nc3ccc4c(c3)CCNC4)ncc12 [Example 7, N^3-(2,6-dimethylphenyl)-1-methyl-N^6-(1,2,3,4-tetrahydroisoquinoline-6-yl)-1H-pyrazolo[3,4-d]pyrimidine-3,6-diamine] | 0.8 nM | 46 nM | 20 nM |
| CCN1CCc2ccc(Nc3ncc4c(Nc5c(C)cccc5C)nn(C)c4n3)cc2C1 [Example 32, N3-(2,6-dimethylphenyl)-N^6-(2-ethyl-1,2,3,4-tetrahydroisoquinoline-7-yl)-1-methyl-1H-pyrazolo[3,4-d]pyrimidine-3,6-diamine] | 0.7 nM | 37.9 nM | – |
| Cc1cccc(C)c1Nc1nn(C)c2nc(Nc3ccc4c(c3)CN(C(=O)CO)CC4)ncc12 [Example 22, 1-(7-(3-(2,6-dimethylphenylamino)-1-methyl-1H-pyrazolo[3,4-d]pyrimidine-6-ylamino)-3,4-dihydroisoquinoline-2(1H)-yl)-2-hydroxyethanone] | 0.4 nM | 46.4 nM | – |
| Cc1cccc(Cl)c1Nc1nn(C)c2nc(Nc3ccc4c(c3)CNCC4)ncc12 [Example 48, N^3-(2-chloro-6-methylphenyl)-1-methyl-N^6 (1,2,3,4-tetrahydroisoquinoline-7-yl)-1H-pyrazolo[3,4-d]pyrimidine-3,6-diamine] | 1.28 nM | 50.2 nM | – |
| Cc1ccc(NC(=O)c2cccc(C(F)(F)F)c2)cc1Nc1nn(C)c2nc(Nc3ccc4c(c3)C(C)NCC4)ncc12 (stereo not drawn) [Example 47, N-(4-methyl-3-(1-methyl-6-(1-methyl-1,2,3,4-tetrahydroisoquinoline-7-ylamino)-1H-pyrazolo[3,4-d]pyrimidine-3-ylamino)phenyl)-3-(trifluoromethyl)benzamide] | 5.42 nM | 13.8 nM | – |
| Cc1ccc(NC(=O)c2cccc(C(F)(F)F)c2)c(C)c1Nc1nn(C)c2nc(Nc3ccc4c(c3)CNCC4)ncc12 [Example 29, N-(2,4-dimethyl-3-(1-methyl-6-(1,2,3,4-tetrahydroisoquinoline-7-ylamino)-1H-pyrazolo[3,4-d]pyrimidine-3-ylamino)phenyl)-3-(trifluoromethyl)benzamide] | 8 nM | 117 nM | – |
| Cc1cccc(C)c1Nc1nn(C)c2nc(Nc3ccc4c(c3)C(C)NCC4)ncc12 (stereo not drawn) [Example 20, N^3-(2,6-dimethylphenyl)-1-methyl-N^6-(1-methyl-1,2,3,4-tetrahydroisoquinoline-7-yl)-1H-pyrazolo[3,4-d]pyrimidine-3,6-diamine] | 0.5 nM | 8.28 nM | – |
| Cn1nc(Nc2ccccc2)c2cnc(Nc3ccc4c(c3)CNCC4)nc21 [Example 10, 1-methyl-N^3-phenyl-N^6-(1,2,3,4-tetrahydroisoquinoline-7-yl)-1H-pyrazolo[3,4-d]pyrimidine-3,6-diamine] | – | – | 202 nM |
| Cc1cccc(C)c1Nc1nn(C)c2nc(Nc3ccc4c(c3)C(C)NC(C)(C)C4)ncc12 (stereo not drawn) [Example 55, N3-(2,6-dimethylphenyl)-1-methyl-N 6-(1,3,3-trimethyl-1,2,3,4-tetrahydroisoquinoline-7-yl)-1H-pyrazolo[3,4-d]pyrimidine-3,6-diamine] | 0.847 nM | 16.8 nM | – |
| Cn1nc(Nc2c(Cl)cccc2Cl)c2cnc(Nc3ccc4c(c3)CCNC4)nc21 [Example 15, N^3-(2,6-dichlorophenyl)-1-methyl-N^6-(1,2,3,4-tetrahydroisoquinoline-6-yl)-1H-pyrazolo[3,4-d]pyrimidine-3,6-diamine] | – | 41 nM | 1.3 nM |

The remaining molecules from weak to strong by IC50 [1], led by results:

| IC50 [1] | Structure (SMILES) | IC50 (TMD8 cells) | IC50 [2] |
| --- | --- | --- | --- |
| 386 nM | Cn1nc(Nc2c(Cl)cccc2Cl)c2cnc(Nc3ccc4c(c3)CN(C(=O)C(F)(F)F)CC4)nc21 [Example 11, 1-(7-(3-(2,6-dichlorophenylamino)-1-methyl-1H-pyrazolo[3,4-d]pyrimidine-6-ylamino)-3,4-dihydroisoquinoline-2(1H)-yl)-2,2,2-trifluoroethaneone] | 243 nM | – |
| 5 nM | Cc1cc(Oc2ccccc2)cc(C)c1Nc1nn(C)c2nc(Nc3ccc4c(c3)CNCC4)ncc12 [Example 33, N-(2,6-dimethyl-4-phenoxyphenyl)-1-methyl-N^6 (1,2,3,4-tetrahydroisoquinoline-7-yl)-1H-pyrazolo[3,4-d]pyrimidine-3,6-diamine] | 669 nM | – |
| 4.01 nM | CC(=O)N1CCc2ccc(Nc3ncc4c(Nc5c(C)cccc5C)nn(C)c4n3)cc2C1(C)C [Example 60, 1-(7-((3-((2,6-dimethylphenyl)amino)-1-methyl-1H-pyrazolo[3,4-d]pyrimidine-6-yl)amino)-1,1-dimethyl-3,4-dihydroisoquinoline-2(1H)-yl)ethane-1-one] | 159 nM | – |
| 3 nM | Cc1ccc(NC(=O)c2cccc(C(F)(F)F)c2)cc1Nc1nn(C)c2nc(Nc3ccc4c(c3)CNCC4)ncc12 [Example 28, N-(4-methyl-3-((1-methyl-6-((1,2,3,4-tetrahydroisoquinoline-7-yl)amino)-1H-pyrazolo[3,4-d]pyrimidine-3-yl)amino)phenyl)-3-(trifluoromethyl)benzamide] | 17.9 nM | – |
| 1.84 nM | Cc1cccc(C)c1Nc1nn(C)c2nc(Nc3ccc4c(c3)C(C)(C)N(C)CC4)ncc12 [Example 59, N3-(2,6-dimethylphenyl)-1-methyl-N 6-(1,1,2-trimethyl-1,2,3,4-tetrahydroisoquinoline-7-yl)-1H-pyrazolo[3,4-d]pyrimidine-3,6-diamine] | 9.27 nM | – |
| 1.7 nM | Cc1cc(F)cc(C)c1Nc1nn(C)c2nc(Nc3ccc4c(c3)CNCC4)ncc12 [Example 44, N^3-(4-fluoro-2,6-dimethylphenyl)-1-methyl-N^6-(1,2,3,4-tetrahydroisoquinoline-7-yl)-1H-pyrazolo[3,4-d]pyrimidine-3,6-diamine] | 69 nM | – |
| 1.69 nM | Cc1cccc(C)c1Nc1nn(C)c2nc(Nc3ccc4c(c3)C(C)(C)NCC4)ncc12 [Example 58, N6-(1,1-dimethyl-1,2,3,4-tetrahydroisoquinolin-7-yl)-N 3-(2,6-dimethylphenyl)-1-methyl-1H-pyrazolo[3,4-d]pyrimidine-3,6-diamine] | 8.77 nM | – |
| 0.6 nM | CC(=O)N1CCc2ccc(Nc3ncc4c(Nc5c(C)cccc5C)nn(C)c4n3)cc2C1 [Example 1, 1-(7-(3-(2,6-dimethylphenylamino)-1-methyl-1H-pyrazolo[3,4-d]pyrimidine-6-ylamino)-3,4-dihydroisoquinoline-2(1H)-yl)ethaneone] | 41.1 nM | 35 nM |
| 0.523 nM | Cc1cccc(C)c1Nc1nn(C)c2nc(Nc3ccc4c(c3)CNC(C)(C)C4)ncc12 [Example 53, N^6-(3,3-dimethyl-1,2,3,4-tetrahydroisoquinoline-7-yl)-N^3-(2,6-dimethylphenyl)-1-methyl-1H-pyrazolo[3,4-d]pyrimidine-3,6-diamine] | 31.9 nM | – |
